According to ChEMBL document CHEMBL1153972, “Solution studies on the complex of 4'-epiadriamycin-d-(CGATCG)2 followed by time-resolved fluorescence measurement, diffusion ordered spectroscopy and restrained molecular dynamics simulations” (Bioorg Med Chem, 2009):
The source made the active and inactive calls. The calls are words filed in the database; no cut-off is given here.

Columns and labels:
Format in all cases: nucleic-acid assay
Nucleic Acid [1] = assay: Binding affinity to DNA d-(CGATCG)2 by NMR study
Nucleic Acid [2] = assay: Binding affinity to DNA d-(CGATCG)2 assessed as rate of diffusion by diffusion ordered spectroscopy study
Nucleic Acid [3] = assay: Binding affinity to DNA d-(CGATCG)2 at drug to DNA ratio of 2:1 by time resolved fluorescence measurements
Nucleic Acid [4] = assay: Binding affinity to DNA d-(CGATCG)2 at drug to DNA ratio of 2:1 by 2D NOESY experiment

Activity (Nucleic Acid [1]): Active | Activity (Nucleic Acid [2]): Active | Activity (Nucleic Acid [3]): Active
SMILES: COc1cccc2c1C(=O)c1c(O)c3c(c(O)c1C2=O)C[C@@](O)(C(=O)CO)C[C@@H]3O[C@H]1C[C@H](N)[C@@H](O)[C@H](C)O1
Activity (Nucleic Acid [4]): Active
